We go through two compounds from patent EP0203559A1, “Penicillin derivative containing naphthyridine” (AUSONIA FARMACEUTICI S.r.l., priority 1985, dated 1986).

The structures appear in SMILES notation. ≈ marks a conversion by molar mass, not a printed value. Bounds are passed on as bounds.

A word on the MIC: it is the smallest concentration in the dilution series that meets the test's criterion for growth inhibition. As a reminder, the inhibition is the change of the read-out against control, counted positive when it falls. A low value points to a weak effect. Broadly, the % inhibition is the percentage by which the read-out fell short of the control. A lower % inhibition goes with a response near the control.

In data set [1] the test system is tryptic enzymes (trypsin, pepsin, etc.). In words: Stability to tryptic enzymes. Type of data set: in vitro ADME.
Data set [2] deals with Klebsiella pneumoniae. In words: In vitro antibacterial activity (MIC), compound I versus 1:1 combination with amoxicillin (Table 3). Type of data set: cell-based. The following applies: 4 strains, average value, compound I alone.
In data set [3] the test system is Staph. albus. Described as above. To be noted: 1 strain, compound I alone. Type of data set: cell-based.
Data set [4] concerns B-lactamases. The data set can be described thus: Stability to B-lactamases. Type of data set: in vitro ADME.
Data set [5] concerns Staph. aureus. The data set can be described thus: In vitro antibacterial activity (MIC), compound I versus 1:1 combination with amoxicillin (Table 3). Type of data set: cell-based. To be noted: Staphylococcus aureus, 8 strains, average value, compound I alone.
Data set [6] has as its system B-lactamases from both Gram-positive and Gram-negative bacteria. The data set can be described thus: Inhibitory activity against B-lactamases. Type of data set: biochemical. The following applies: dosage of 100 δ. On the procedure: (§1) In order to further evaluate its therapeutic potentiality, compound I was tested for any inhibitory activity against B-lactamases.
Data set [7] deals with E. coli. In words: Minimal inhibitory concentrations (MIC) against amoxicillin resistant bacteria (Table 1). To be noted: Escherichia coli, 6 strains. Type of data set: cell-based.
Data set [8] concerns E. coli. In words: In vitro antibacterial activity (MIC), compound I versus 1:1 combination with amoxicillin (Table 3). Type of data set: cell-based. The following applies: Escherichia coli, 2 strains, average value, compound I alone.
Data set [9] concerns Serratia marcescens. The data set can be described thus: Minimal inhibitory concentrations (MIC) against amoxicillin resistant bacteria (Table 1). Type of data set: cell-based. The following applies: 2 strains.
The test system of data set [10] is Staph. aureus coag. pos. The data set is described as above. Type of data set: cell-based. The following applies: Staphylococcus aureus, 4 strains.
Data set [11] deals with Enterob. cloacee. In words: In vitro antibacterial activity (MIC), compound I versus 1:1 combination with amoxicillin (Table 3). The following applies: 2 strains, average value, compound I alone. Type of data set: cell-based.
For data set [12], the system named is Proteus rettgeri. The data set is described as above. Type of data set: cell-based. To be noted: Providencia rettgeri, 1 strain, compound I alone.
The test system of data set [13] is Proteus mirabilis. The data set can be described thus: Minimal inhibitory concentrations (MIC) against amoxicillin resistant bacteria (Table 1). Type of data set: cell-based. To be noted: 3 strains.
Data set [14] concerns Staph. albus. The data set is described as above. Type of data set: cell-based. To be noted: 1 strain.
Data set [15] concerns Staph. aureus CH1. Described as above. To be noted: Staphylococcus aureus, Staph. aureus CH1, 1 strain. Type of data set: cell-based.
For data set [16], the system named is Pseudomonas aeruginosa. The data set can be described thus: In vitro antibacterial activity (MIC), compound I versus 1:1 combination with amoxicillin (Table 3). Type of data set: cell-based. To be noted: 5 strains, average value, compound I alone.
Data set [17] relates to Serratia marcescens. The description is as above. Type of data set: cell-based. The following applies: 2 strains, average value, compound I alone.
The subject of data set [18] is UR10(R446)xZM46 (plasmid R446, Inc M). The data set can be described thus: Inhibition of plasmid transfer by conjugation. Type of data set: cell-based, E. coli. To be noted: Escherichia coli. An excerpt: (§2) Another advantageous feature of compound I resides in its ability to inhibit the transfer of bacterial plasmids by conjugation, said ability being shared by other compounds of quinoline structure and being important since it interferes with transmission of bacterial resistance.
(§3) Phenotype symbols according Novick et al. (1976) were used.
(§4) The following antibiotics were used: streptomycin (Sm), tetracycline (Tc), ampicillin (Ap), kanamycin (Km) and rifampicin (Rif). Compound I in 1 and 10 mcg/ml concentrations was used in the transfer mixtures. • - Microorganisms were grown in Nutrient Broth (B.B.L.), NB, or in Nutrient Agar or Mc Conkey Agar (B.B.L.). Appropriate antibiotic concentrations were added to the selection plates. Sm 10, Tc 10, Ap 30, Km 30, Rif 100 and Nal 50. • - Bacterial strains were incubated till 2.5 x 10^8 cells/ml of nutrient broth exponential phase, and crossed in a donor/recipient 1:5 ratio in 2 x broth during 18 hours at 37°C. On the other hand, in the interrupted crosses, the bacteria were stirred by means of the Vortex apparatus for 1 minute after 1 h cross. • - About one hundred colonies, which could growth on the selection plates (containing the various antibiotics) were checked for the resistance spectrum by "replica plating". • - The transfer frequence was expressed as the number of resistent recipients in comparison with the number of donors in the mating mixtures, at the plating time. The inhibition rate of plasmid transfer was evaluated in tests in which, in the mating mixtures, compound I was present in 1 or 10 mcg/ml concentrations.
(§5) The activity of compound I was tested in different cross systems between E. coli x E. coli.

In data set [19] the test system is CSH28F'lacproxZM46 (plasmid F'lacpro, Inc FI). In words: Inhibition of plasmid transfer by conjugation. To be noted: Escherichia coli. Type of data set: cell-based, E. coli.
Excerpt: as §2, §3, §4, §5

The subject of data set [20] is CSH50(RP4)xZM46 (plasmid RP4, Inc P). The data set can be described thus: Inhibition of plasmid transfer by conjugation. Type of data set: cell-based, E. coli. The following applies: Escherichia coli.
Excerpt: as §2, §3, §4, §5

Data set [21] relates to Pseudomas aeruginosa. The data set can be described thus: Minimal inhibitory concentrations (MIC) against amoxicillin resistant bacteria (Table 1). The following applies: 5 strains. Type of data set: cell-based.
Data set [22] relates to Citrob. freundii. The data set can be described thus: In vitro antibacterial activity (MIC), compound I versus 1:1 combination with amoxicillin (Table 3). Type of data set: cell-based. The following applies: Citrobacter freundii, 2 strains, average value, compound I alone.
The test system of data set [23] is Salmonella enteriditis. Described as above. Type of data set: cell-based. The following applies: 2 strains, average value, compound I alone.
The test system of data set [24] is ß-Lactamase isolated from: E. coli. In words: Inhibition of hydrolysis rates of ß-lactamases. Type of data set: biochemical. On the procedure:
as §1

In data set [25] the test system is ß-Lactamase isolated from: B. cereus. In words: Inhibition of hydrolysis rates of ß-lactamases. Type of data set: biochemical. Here is the method: as §1
Data set [26] concerns Gram-positive and Gram-negative strains resistant to amoxicillin alone. The data set can be described thus: MIC of amoxicillin alone against the resistant strains of Table 3. Type of data set: cell-based.

As for `CCn1cc(C(=O)NC(C(=O)NC2C(=O)N3C2SC(C)(C)C3C(=O)O)c2ccc(O)cc2)c(=O)c2ccc(C)nc21` [Compound I, D-(-)-α-[(1-ethyl-1,4-dihydro-7-methyl-4-oxo-1,8-naphthyridine-3-carboxyamido)-α-(p-hydroxyphenyl)-acetamido]penicil lanic acid], the “stability to tryptic enzymes (trypsin, pepsin, etc.)” value in [1] is listed as “stable to tryptic enzymes”. For the same compound, the MIC is 87.5 µg/mL in data set [2]; 6.25 µg/mL in data set [3]; 10.3 µg/mL in [5]; 25 µg/mL (≈ 43.1 µM) in [7]; 75 µg/mL in data set [8]; 50 µg/mL (≈ 86.3 µM) in data set [9]. For the same compound, the MIC in data set [10] came to 3.12 µg/mL (≈ 5.38 µM); in data set [11], 100 µg/mL; in data set [12] it was 50 µg/mL; in [13], 25 µg/mL (≈ 43.1 µM); in data set [14], 6.25 µg/mL (≈ 10.8 µM); in data set [15] it was 1.56 µg/mL (≈ 2.69 µM). For the same compound, the MIC in [16] came out at 50 µg/mL; in data set [17], 50 µg/mL; in data set [21], 50 µg/mL (≈ 86.3 µM); in [22] it was 100 µg/mL; in data set [23], 100 µg/mL. Also, in [4], the “stability to B-lactamases” value is “stable to B-lactamases”. Besides, the “inhibition of enzymatic activity of B-lactamases” value in data set [6] was “completely inhibiting any enzymatic activity”. Also, the inhibition at 1 µg/mL amounted to 19.1% in data set [18], 40.2% in data set [19] and 36.4% in [20]. The inhibition at 10 µg/mL in [18] is 74.5%; in [19], 69.7%; in data set [20], 66.2%. In addition, the “% inhibition” value in [24] (Conc. 50 γ/ml) amounted to 50%; in data set [24] (Conc. 75 γ/ml) it was 90%; in data set [24] (Conc. 100 γ/ml), 100%; in data set [25] (Conc. 50 γ/ml), 50%; in data set [25] (Conc. 75 γ/ml), 90%; in [25] (Conc. 100 γ/ml), 100%.
In the case of `CC1(C)S[C@@H]2[C@H](NC(=O)[C@H](N)c3ccc(O)cc3)C(=O)N2[C@H]1C(=O)O` [amoxicillin], in [26], the MIC is at least 800 µg/mL.
